The supplement of paper PMC10307832

Tests used:
Assay in all cases: relative viability (nuclei count vs DMSO), 5 days (fraction); higher = more cells survive
Lapatinib + OSI-027 = compound: CS(=O)(=O)CCNCc1ccc(-c2ccc3ncnc(Nc4ccc(OCc5cccc(F)c5)c(Cl)c4)c3c2)o1 [Lapatinib] + COc1cccc2cc(-c3nc([C@H]4CC[C@H](C(=O)O)CC4)n4ncnc(N)c34)[nH]c12 [OSI-027] (partner 0.5 µM)
How it was run: (§1)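 Lung cancer cell lines were seeded in 1536-well plates and dosed by pin tool the next day, with either a single drug or a fixed anchor-drug dose combined with five library-drug doses (not always all listed) spaced in √10 steps. Five days later, one step fixed the cells and stained their nuclei (final 0.05% Triton X-100, 1% formaldehyde, 1 ug/ml Hoechst), and nuclei were counted on 4× images. Relative viability is the nuclei count in treated wells divided by the count in vehicle wells, and each value is the median of duplicate plates.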

Wnt-C59 + Phenformin = compound: CC1=NC=CC(=C1)C2=CC=C(C=C2)CC(=O)NC3=CC=C(C=C3)C4=CN=CC=C4 [Wnt-C59] + N=C(N)NC(=N)NCCc1ccccc1 [Phenformin] (partner 250 µM)
How it was run: as §1

Lapatinib + Palbociclib = compound: CS(=O)(=O)CCNCc1ccc(-c2ccc3ncnc(Nc4ccc(OCc5cccc(F)c5)c(Cl)c4)c3c2)o1 [Lapatinib] + CC(=O)c1c(C)c2cnc(Nc3ccc(N4CCNCC4)cn3)nc2n(C2CCCC2)c1=O [Palbociclib] (partner 0.5 µM)
How it was run: as §1

Lapatinib + Linsitinib = compound: CS(=O)(=O)CCNCc1ccc(-c2ccc3ncnc(Nc4ccc(OCc5cccc(F)c5)c(Cl)c4)c3c2)o1 [Lapatinib] + C[C@]1(O)C[C@@H](c2nc(-c3ccc4ccc(-c5ccccc5)nc4c3)c3c(N)nccn32)C1 [Linsitinib] (partner 1 µM)
How it was run: as §1

Cell Line | relative viability (Lapatinib + OSI-027; first compound 0.02 µM) | relative viability (Lapatinib + OSI-027; first compound 0.2 µM) | relative viability (Lapatinib + OSI-027; first compound 0.6325 µM) | relative viability (Lapatinib + OSI-027; first compound 2 µM) | relative viability (Wnt-C59 + Phenformin; first compound 0.001 µM) | relative viability (Wnt-C59 + Phenformin; first compound 0.03162 µM) | relative viability (Wnt-C59 + Phenformin; first compound 0.1 µM) | relative viability (Lapatinib + Palbociclib; first compound 0.02 µM) | relative viability (Lapatinib + Palbociclib; first compound 0.2 µM) | relative viability (Lapatinib + Palbociclib; first compound 0.6325 µM) | relative viability (Lapatinib + Palbociclib; first compound 2 µM) | relative viability (Lapatinib + Linsitinib; first compound 0.02 µM) | relative viability (Lapatinib + Linsitinib; first compound 0.06325 µM) | relative viability (Lapatinib + Linsitinib; first compound 0.2 µM) | relative viability (Lapatinib + Linsitinib; first compound 0.6325 µM) | relative viability (Lapatinib + Linsitinib; first compound 2 µM) | relative viability (Lapatinib + OSI-027; first compound 0.06325 µM) | relative viability (Wnt-C59 + Phenformin; first compound 0.01 µM) | relative viability (Lapatinib + Palbociclib; first compound 0.06325 µM)
NCI-H727 | 0.529 | 0.557 | 0.467 | 0.499 | 0.337 | 0.545 | 0.66 | 0.65 | 0.653 | 0.618 | 0.557 | 0.259 | 0.207 | 0.278 | 0.256 | 0.236 |  |  | 
A-427 |  | 0.516 | 0.541 | 0.417 | 0.334 | 0.407 | 0.384 | 0.544 | 0.526 | 0.524 | 0.483 |  | 1.05 | 1.11 | 1.17 | 1.14 | 0.359 | 0.338 | 0.518
